Reference: patent publication US10745402B2, “Morphinan derivatives and use thereof” (PURDUE PHARMA L.P., priority 2017, dated 2020)

Legend:
Sprague-Dawley rats [1] = experiment: Hot plate analgesia in rats (observation of sedation); assay type: in vivo, rat
Experimental: To assess the actions of a Compound of the present disclosure for the treatment or prevention of acute pain, the rat hot plate test can also be used. Rats are tested using a hot plate apparatus consisting of a clear plexiglass cylinder with a heated metal floor maintained at a temperature of 48-52° C. (Model 7280, commercially available from Ugo Basile of Italy). […] Hot plate latencies are measured immediately before (pre-treatment) and 1, 3, and 5 hours following administration of a Compound of the present disclosure. The nocifensive behavioral endpoint is defined as any of the following: 1) paw withdrawal, either as a sustained lift or with shaking or licking; 2) alternating foot lifting; 3) escape or attempted escape from the testing device; or 4) vocalization. Data are expressed as response latency(s) and the percentage of the maximal possible effect is calculated as described above for the tail flick test. […]
Male, Sprague-Dawley rats (Harlan, weight 211-246 g; n=5-10/group) were baselined (“BL”) for latency on a hot plate which was set to 52° C. the day prior to dosing. […] The next day, vehicle (0.5% MC) po, Compound 1 po; or morphine sc, the positive control, were administered and thermal latency was assessed 1, 3, and 5 hours after dosing.
Data were analyzed by a two-way ANOVA using a Bonferroni Multiple Comparisons test, where *P<0.05 and ****P<0.0001 vs vehicle. […]

κ-opioid receptor [2] = target: T1, κ-opioid receptor (Homo sapiens, UniProt P41145); experiment: β-Arr2 activity response in U2OS cells, κ-opioid receptor; assay type: cell-based; parameters: expressed in transfected cells; host or cells: U2OS (U-2 OS)
T1 sequence (P41145 whole entry): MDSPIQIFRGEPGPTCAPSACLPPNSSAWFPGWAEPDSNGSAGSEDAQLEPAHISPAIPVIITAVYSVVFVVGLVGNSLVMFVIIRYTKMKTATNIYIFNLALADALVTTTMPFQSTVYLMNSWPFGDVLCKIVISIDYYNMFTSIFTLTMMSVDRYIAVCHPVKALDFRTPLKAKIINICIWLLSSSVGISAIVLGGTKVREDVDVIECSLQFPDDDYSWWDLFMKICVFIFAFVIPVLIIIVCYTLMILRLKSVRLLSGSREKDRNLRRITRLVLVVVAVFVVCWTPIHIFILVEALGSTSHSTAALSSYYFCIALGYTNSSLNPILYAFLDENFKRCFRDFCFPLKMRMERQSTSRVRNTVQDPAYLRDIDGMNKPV
Experimental: (§1) TABLE 4 provides activity response of certain Compounds of the present disclosure to the μ- and κ-opioid receptors that was determined in the above-described functional assays using U2OS cells.

Sprague-Dawley rats [3] = experiment: Conditioned Place Preference (CPP) in rats; assay type: in vivo, rat; conditions: po in 0.5% MC, day 8, one-way ANOVA
From the text: Conditioned Place Preference (CPP) test is a test typically used to measure drug liking.
Male, Sprague-Dawley rats (Harlan, weight 213-240 g) at the beginning of the dosing paradigm were baselined (“BL”) for initial preference (pretest; day 1) using automated conditioning chambers (MedAssociates, Fairfax, Vt.); n=10/group. An unbiased counterbalanced design was used in which rats were randomly assigned to each group with respect to compartment pairings based on weight.
Compound 1 was formulated in 0.5% MC and administered po., while oxycodone, the positive control was dissolved in saline and administered sc.
During the first conditioning session, half of the rats were confined to the black compartment paired with either vehicle (0.5% MC) po, oxycodone sc, or Compound 1 po administration, while the other half were placed in white compartment with similar pairings.
Rats were conditioned on alternate days for 6 total sessions (3 vehicle/3 oxycodone or Compound 1). Control rats received vehicle at each conditioning session. […]
Conditioned Place Preference (CPP) was determined on day 8, and is represented as the difference between the time (seconds) the rat spent in the drug-paired and vehicle-paired compartments. Data are represented as the means±S.E.M., and were analyzed by a one-way ANOVA where *P<0.05 vs vehicle.

μ-opioid receptor [4] = target: T2, μ-opioid receptor (Homo sapiens, UniProt P35372); experiment: β-Arr2 activity response in U2OS cells, μ-opioid receptor; assay type: cell-based
T2 sequence (P35372 whole entry, species assumed): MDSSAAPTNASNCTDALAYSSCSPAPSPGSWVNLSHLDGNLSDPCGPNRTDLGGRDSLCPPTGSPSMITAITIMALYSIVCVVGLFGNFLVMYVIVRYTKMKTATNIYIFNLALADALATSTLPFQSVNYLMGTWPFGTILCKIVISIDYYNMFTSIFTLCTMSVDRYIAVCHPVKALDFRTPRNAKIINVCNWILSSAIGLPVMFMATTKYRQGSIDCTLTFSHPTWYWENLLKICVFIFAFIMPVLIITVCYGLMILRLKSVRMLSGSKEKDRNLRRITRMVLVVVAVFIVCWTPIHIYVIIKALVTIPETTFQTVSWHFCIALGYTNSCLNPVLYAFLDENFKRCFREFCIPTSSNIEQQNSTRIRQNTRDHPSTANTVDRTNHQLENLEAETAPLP
Experimental: as §1

μ-opioid receptor [5] = target: T2, μ-opioid receptor; experiment: [35S]GTPγS functional assay, μ-opioid receptor (HEK-293 or CHO cells); assay type: biochemical; parameters: made in house; host or cells: HEK-293 or CHO
Experimental: [^35S]GTPγS functional assays were conducted using freshly thawed μ-receptor membranes prepared in-house from a cell line expressing recombinant μ opioid receptor in a HEK-293, CHO or U-2 OS cell background, or purchased from a commercial source (Perkin Elmer, Shelton, Conn.; or DiscovRx, Fremont, Calif.). Assay reactions were prepared by sequentially adding the following reagents to binding buffer (100 mM NaCl, 10 mM MgCl2, 20 mM HEPES, pH 7.4) on ice (final concentrations indicated): membrane protein (0.026 mg/mL), saponin ([…]), GDP ([…]) and [^35S]GTPγS (0.20 nM; Perkin Elmer, Shelton, Conn.). The prepared membrane solution (190 μl/well) was transferred to 96-shallow well polypropylene plates containing 10 μl of 20× concentrated stock solutions of the agonist [D-Ala^2, N-methyl-Phe^4 Gly-ol^5]-enkephalin (DAMGO) prepared in dimethyl sulfoxide (DMSO). Plates were incubated for 30 min at about 25° C. with shaking. […] BetaScint scintillation cocktail (Perkin Elmer, Shelton, Conn.) was added (50 μl/well) and plates were counted using a Packard Top-Count for 1 min/well. Data were analyzed using the sigmoidal dose-response curve fitting functions in GraphPad PRISM v. […]
(§2) TABLE 3 provides activity response of certain Compounds of the present disclosure to the μ- and κ-opioid receptors that was determined in the above-described functional assays using HEK-293 or CHO cells.

κ-opioid receptor [6] = target: T1, κ-opioid receptor; experiment: [35S]GTPγS functional assay, κ-opioid receptor (HEK-293 or CHO cells); assay type: biochemical; parameters: made in house; host or cells: HEK-293 or CHO
Experimental: Membranes from HEK-293 cells, CHO or U-2 OS cells expressing the recombinant human kappa opioid receptor (κ) were prepared by lysing cells in ice cold hypotonic buffer (2.5 mM MgCl2, 50 mM HEPES, pH 7.4) (10 mL/10 cm dish) followed by homogenization with a tissue grinder/Teflon pestle. Membranes were collected by centrifugation at 30,000×g for 15 min at 4° C. and pellets were resuspended in hypotonic buffer to a final concentration of 1-3 mg/mL. Protein concentrations were determined using the BioRad protein assay reagent with bovine serum albumen as standard. Aliquots of κ receptor membranes were stored at −80° C.
Functional [^35S]GTPγS binding assays were conducted as follows. κ opioid receptor membrane solution was prepared by sequentially adding final concentrations of 0.026 μg/μl κ membrane protein (in-house), 10 μg/mL saponin, 3 μM GDP and 0.20 nM [^35S]GTPγS to binding buffer (100 mM NaCl, 10 mM MgCl2, 20 mM HEPES, pH 7.4) on ice. […] Fifty μl/well scintillation cocktail (Perkin Elmer, Shelton, Conn.) was added and plates were counted in a Packard Top-Count for 1 min/well.
as §2

SMILES	appearance of animals (sedation) in hot plate study (Sprague-Dawley rats [1]; 30-75 mg/kg po)	EC50 (κ-opioid receptor [2]) [µM]	Emax (κ-opioid receptor [2]; U2OS cells) [%]	Conditioned Place Preference compared to the vehicle group (Sprague-Dawley rats [3])	EC50 (μ-opioid receptor [4]) [µM]	Emax (μ-opioid receptor [4]; U2OS cells) [%]	EC50 (μ-opioid receptor [5]) [µM]	Emax (μ-opioid receptor [5]; HEK-293 or CHO cells, relative to DAMGO, read-out: GTPγD μ Emax) [%]	EC50 (κ-opioid receptor [6]) [µM]	Emax (κ-opioid receptor [6]; HEK-293 or CHO cells, relative to U69,593, read-out: GTPγD κ Emax) [%]	appearance of animals (sedation) in hot plate study (Sprague-Dawley rats [1]; sc, positive control)
CN1CC[C@]23CCCC[C@@]2(O)[C@H]1Cc1ccc(C(N)=O)cc13 [Compound 1, (4bS,8aS,9R)-8a-hydroxy-11-methyl-6,7,8,8a,9,10-hexahydro-5H-9,4b-(epiminoethano)phenanthrene-3-carboxamide]	appeared to be sedate	> 20	-0.83 ± 0.17	not statistically significant	0.0367 ± 0.0054	8.58 ± 0.3	0.0442 ± 0.0119	50.5 ± 0.95	0.62 ± 0.0911	14.9 ± 0.63	
CN1CC[C@]23c4c5ccc(O)c4O[C@H]2[C@@H](O)C=C[C@H]3[C@H]1C5 [morphine, reference compound]											appeared to be sedate
